Measurements taken from patent US20250066395A1, “Detecting and Separating Rare Earth Metal Mixtures” (Board of Regents, The University of Texas System, priority 2023, published 2025).

Source text: We have selected water and ethyl acetate (EtOAc) for their “green solvent” properties of being safe to handle, eco-friendly, little to no hazardous waste, etc.

## scandium
  Soluble in water: soluble

## yttrium
  Soluble in water: soluble
